Patent publication US10034886B2, “GLP-1 receptor modulators” (Celgene International II SÀRL, priority 2014, dated 2018)

target: T1, GLP-1R (Homo sapiens, UniProt P43220); test: EC20 GLP-1(9-36) PAM cAMP assay: dose response of compound in the presence of fixed concentration of GLP-1(9-36); assay type: cell-based; details: GLP-1R CRE-bla CHO-K1 cells, compound dose response with fixed concentration of GLP-1(9-36), read-out: EC20 GLP-1(9-36) PAM EC50
T1 construct: host or cells: GLP-1R CRE-bla CHO-K1 cells
T1 sequence (P43220 24-463): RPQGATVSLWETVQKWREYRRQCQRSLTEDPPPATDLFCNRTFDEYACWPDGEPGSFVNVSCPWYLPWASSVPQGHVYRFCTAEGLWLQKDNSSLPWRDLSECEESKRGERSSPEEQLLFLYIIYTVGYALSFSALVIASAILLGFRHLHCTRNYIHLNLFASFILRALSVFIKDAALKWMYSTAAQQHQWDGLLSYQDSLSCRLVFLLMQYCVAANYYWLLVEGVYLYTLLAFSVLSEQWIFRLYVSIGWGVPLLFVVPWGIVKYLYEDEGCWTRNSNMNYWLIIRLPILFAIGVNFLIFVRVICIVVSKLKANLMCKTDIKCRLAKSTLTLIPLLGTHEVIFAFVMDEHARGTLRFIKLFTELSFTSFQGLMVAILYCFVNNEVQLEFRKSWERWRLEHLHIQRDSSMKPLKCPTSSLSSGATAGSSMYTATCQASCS
T1 sequence (P01275 100-127 partner limits assumed): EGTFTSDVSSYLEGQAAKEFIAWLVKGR
Procedure: EC20 GLP-1(9-36) PAM cAMP Assay: Dose Response of Compound in the Presence of Fixed Concentration of GLP-1 (9-36).
GLP-1R CRE-bla CHO-K1 cells cultured in growth medium (DMEM-High glucose, 10% dialyzed FBS, 0.1 mM NEAA, 25 mM Hepes, 100 U/mL penicillin/100 μg/mL streptomycin, 5 μg/mL Blasticidin, 600 μg/mL Hygromycin) were trypsinized and plated in suspension into 384 well white flat bottom plates at 5000 cells/well in 12 μL assay buffer (Hanks Balanced Salt solution, 10 mM hepes, 0.1% BSA, pH 7.4). A 5× compound dose response curve (12-point) was generated in assay buffer containing 1.5 mM IBMX, 4% DMSO. GLP-1(9-36) was diluted to 4.2 μM in assay buffer containing 1.5 mM IMBX and 4% DMSO. The 5× compound dose response was added (3 μL), followed by 0.5 μL of GLP-1(9-36) and cells were incubated for 30 min at 37° C. Direct detection of cAMP was carried out using DiscoveRx HitHunter cAMP kit according to manufacturer's instructions and luminescence was read using a SpectraMax M5 plate reader. Luminescence was converted to total cAMP using a cAMP standard curve and data was analyzed by non-linear regression to determine the EC50 and Emax.
GLP-1(7-36): […]-NH2 (SEQ ID NO: 2). GLP-1(9-36): […]-NH2 (SEQ ID NO: 3). GLP-1(7-36) was purchased from GenScript. GLP-1(9-36) was purchased from Biopeptide Co., Inc.
The EC20GLP-1(9-36) PAM Activity range is denoted as follows: + denotes activity <0.8 μM, ++ denotes activity between 0.8 and 2.5 μM, +++ denotes activity between 2.5 and 5 μM, and ++++ denotes activity 5 to 10 μM.

EC50 [nM]	Structure (SMILES)
800 to 2500	CCC[C@H]1CC[C@H](C2CCN(c3cnc(-c4ccc(C[C@H](NC(=O)c5ccc(C(C)(C)C)s5)C(=O)N[C@H](C)C(N)=O)cc4)nc3)CC2)CC1 [Compound 1441]
800 to 2500	CC[C@H]1CC[C@H](c2ccc(-c3cnc(-c4ccc(C[C@H](NC(=O)c5ccc(C(F)(F)F)cc5)C(=O)O)cc4)nc3)cc2)CC1 [Compound 1374]
< 800	CN(C)c1ccc(C2CCN(c3cnc(-c4ccc(CC(NC(=O)c5ccc(C(C)(C)C)s5)C(=O)N5CC(C(=O)O)C5)cc4)nc3)CC2)cc1 (stereo not drawn) [Compound 1517]
< 800	CC(C)(C)c1ccc(C(=O)N[C@@H](Cc2ccc(-c3ncc(-c4ccc(-c5cccc(C(F)(F)F)c5)cc4)cn3)cc2)C(=O)O)s1 [Compound 1347]
< 800	CC(C)(C)c1ccc(C(=O)N[C@@H](Cc2ccc(-c3ncc(-c4ccc(-c5ccc(OC(F)(F)F)cc5F)cc4F)cn3)cc2)C(=O)N2CC(C(=O)O)C2)s1 [Compound 1203]
2500 to 5000	CC(C)(C)c1ccc(C(=O)N[C@@H](Cc2ccc(-c3ncc(-c4ccc([C@H]5CC[C@@H](C)CC5)cc4)cn3)cc2)C(=O)O)s1 [Compound 1357]
< 800	CCCc1ccc(-c2ccc(-c3cnc(-c4ccc(C[C@H](NC(=O)C5CCC(C(C)(C)C)CC5)C(=O)N5CC(C(=O)O)C5)cc4)nc3)c(F)c2)cc1 (stereo partly drawn) [Compound 1401]
800 to 2500	CC(C)CCCOc1ccc(-c2cnc(-c3ccc(C[C@H](NC(=O)c4ccc(C(C)(C)C)nc4)C(=O)N4CC(C(=O)O)C4)cc3)nc2)cc1 [Compound 1231]
800 to 2500	C[C@@H](NC(=O)[C@H](Cc1ccc(-c2ncc(/C=C/CCCc3ccccc3)cn2)cc1)NC(=O)c1ccc(C(C)(C)C)s1)C(=O)O [Compound 1247]
< 800	CCC[C@H]1CC[C@H](C2CCN(c3cnc(-c4ccc(C[C@H](NC(=O)c5ccc(C(C)(C)C)s5)C(=O)N[C@@H](CN)C(=O)O)cc4)nc3)CC2)CC1 [Compound 1472]

same assay, conditions: dose response of compound in presence of fixed concentration of GLP-1(9-36), GLP-1R CRE-bla CHO-K1 cells, read-out: EC20 GLP-1(9-36) PAM EC50

EC50 [nM]	Structure (SMILES)
2500 to 5000	CCCCCCCOc1ccc(-c2cnc(-c3ccc(C(NC(=O)c4ccc(C(C)(C)C)s4)C(=O)O)cc3)nc2)cc1 (stereo not drawn) [Compound 289, 2-(5-(tert-butyl)thiophene-2-carboxamido)-2-(4-(5-(4-(heptyloxy)phenyl)pyrimidin-2-yl)phenyl)acetic acid]
< 800	CCc1ccc(C(=O)N[C@@H](Cc2ccc(-c3ncc(-c4ccc([C@H]5CC[C@H](CC)CC5)cc4)cn3)cc2)C(=O)N2CC(C(=O)O)C2)s1 [Compound 1153]
< 800	CCc1ccc(-c2ccc(-c3cnc(-c4ccc(C[C@H](NC(=O)c5ccc(C(C)(C)C)s5)C(=O)N5CC(C(=O)O)C5)cc4)nc3)c(F)c2)cc1 [Compound 1189]
2500 to 5000	CCc1ccc(/C=C/c2cnc(-c3ccc(C[C@H](NC(=O)c4ccc(C(C)(C)C)s4)C(=O)N[C@H](C)C(=O)O)cc3)nc2)cc1 [Compound 1055]
5000 to 10000	CCCCCCCOc1ccc(-c2cnc(-c3ccc(C[C@H](NC(=O)c4ccc(O)c(F)c4)C(=O)N[C@H](C)C(=O)O)cc3)nc2)cc1 [Compound 983]
2500 to 5000	C[C@@H](NC(=O)[C@H](Cc1ccc(-c2ncc(-c3ccc4c(ccn4S(=O)(=O)c4ccccc4)c3)cn2)cc1)NC(=O)c1ccc(C(C)(C)C)s1)C(=O)O [Compound 1010]
< 800	C[C@@H](NC(=O)[C@H](Cc1ccc(-c2ncc(-c3ccc(-c4ccc(OC(F)(F)F)cc4F)cc3)cn2)cc1)NC(=O)c1ccc(C(C)(C)C)s1)C(=O)O [Compound 1146]
800 to 2500	CCCCCCCOc1ccc(-c2cnc(-c3ccc(C[C@H](NC(=O)Cc4ccc(OCCCC)cc4)C(=O)N4CC(C(=O)O)C4)cc3)nc2)cc1 [Compound 1102]
2500 to 5000	CCC(CC)Oc1ccc(-c2cnc(-c3ccc(C[C@H](NC(=O)c4ccc(C(C)(C)C)s4)C(=O)NC(C(=O)O)C(O)c4ccccc4)cc3)nc2)cc1 (stereo partly drawn) [Compound 935]
2500 to 5000	CCCCCCCOc1ccc(-c2cnc(-c3ccc(C[C@H](NC(=O)c4cnn(C(C)(C)C)c4C)C(=O)N4CC[C@H](C(=O)O)C4)cc3)nc2)cc1 [Compound 861]
2500 to 5000	C[C@@H](NC(=O)[C@H](Cc1ccc(-c2ncc(-c3ccc(C(=O)NCC4CCCCC4)cc3)cn2)cc1)NC(=O)c1ccc(C(C)(C)C)s1)C(=O)O [Compound 1043]
< 800	CCCCCCCOc1ccc(-c2cnc(-c3ccc(C[C@H](NC(=O)c4ccc(C(C)(C)C)s4)C(=O)NC(C(=O)O)C(O)c4cc(C)no4)cc3)nc2)cc1 (stereo partly drawn) [Compound 912]
800 to 2500	CCCCCCCOc1ccc(-c2cnc(-c3ccc(C[C@H](NC(=O)c4ccc(C(C)(C)C)s4)C(=O)N[C@@H](CC(=O)N(C)CCN)C(=O)O)cc3)nc2)cc1 [Compound 519]
< 800	CCCCCCCOc1ccc(-c2cnc(-c3ccc(C[C@H](NC(=O)c4ccc(C(C)(C)C)s4)C(=O)N[C@H](C(=O)O)[C@H](O)c4ccccc4)cc3)nc2)cc1 [Compound 642]
800 to 2500	CCCCCOc1ccc(-c2cnc(-c3ccc(C[C@H](NC(=O)c4ccc(C(C)(C)C)cc4)C(=O)NCCC(=O)O)cc3)nc2)cc1 [Compound 489]
5000 to 10000	CCC(CC)Oc1ccc(-c2cnc(-c3ccc(C[C@H](NC(=O)c4ccc(C(C)(C)C)s4)C(=O)N4CC(C(=O)O)C4)cc3)nc2)cc1 [Compound 919]
800 to 2500	CCCCCCCOc1ccc(-c2cnc(-c3ccc(C[C@H](NC(=O)c4ccc(CC(C)C)s4)C(=O)N4CCC[C@H]4C(=O)O)cc3)nc2)cc1 [Compound 1080]
< 800	CCCCCCCOc1ccc(-c2cnc(-c3ccc(C[C@H](NC(=O)c4ccc(C(C)(C)C)cc4)C(=O)NCC(O)C(=O)O)cc3)nc2)cc1 (stereo partly drawn) [Compound 554]
5000 to 10000	COc1ccc(-c2cnc(-c3ccc(C[C@H](NC(=O)c4ccc(C(C)(C)C)s4)C(=O)N[C@H](C)C(=O)O)cc3)nc2)c(F)c1OCC(C)C [Compound 1003]
< 800	C[C@@H](NC(=O)[C@H](Cc1ccc(-c2ncc(-c3ccc(-c4ccc(C(F)(F)F)cc4)cc3F)cn2)cc1)NC(=O)c1ccc(C(C)(C)C)s1)C(=O)O [Compound 1174]
800 to 2500	Cc1cc(-c2ccccc2)ccc1-c1cnc(-c2ccc(C[C@H](NC(=O)c3ccc(C(C)(C)C)s3)C(=O)N[C@H](C)C(=O)O)cc2)nc1 [Compound 1131]
800 to 2500	CCCCCCCOc1ccc(-c2cnc(-c3ccc(C[C@H](NC(=O)c4ccc(C(C)(C)C)s4)C(=O)N[C@@H](C(=O)O)[C@@H](O)c4ccccc4)cc3)nc2)cc1 [Compound 667, (2R,3S)-2-((S)-2-(5-(tert-butyl)thiophene-2-carboxamido)-3-(4-(5-(4-(heptyloxy)phenyl)pyrimidin-2-yl)phenyl)propanamido)-3-hydroxy-3-phenylpropanoic acid]
800 to 2500	CC(C)(C)c1ccc(C(=O)N[C@@H](Cc2ccc(-c3ncc(-c4ccc(OCCC5CCCCC5)cc4)cn3)cc2)C(=O)N2CC[C@H](C(=O)O)C2)s1 [Compound 774]
< 800	CCCCCCCOc1ccc(-c2cnc(-c3ccc(C[C@H](NC(=O)c4ccc(C(C)(C)C)cc4)C(=O)NC(Cc4ccc(OC)cc4)C(=O)O)cc3)nc2)cc1 (stereo partly drawn) [Compound 568]
800 to 2500	CCCCCCCOc1ccc(-c2cnc(-c3ccc(C[C@H](NC(=O)c4ccc(C(C)(C)C)cc4)C(=O)N[C@@H](CC(=O)O)C(=O)NCCOC)cc3)nc2)cc1 [Compound 506]
< 800	Cc1cc(C)cc(-c2ccc(-c3cnc(-c4ccc(C[C@H](NC(=O)c5ccc(C(C)(C)C)s5)C(=O)N5CC(C(=O)O)C5)cc4)nc3)c(F)c2)c1 [Compound 1191]
